We go through 25 compounds from US8648066B2 (Exelixis, Inc., priority 2009, dated 2014).

The assay deals with mTOR/GbL/Raptor (mTORC1) (Homo sapiens, UniProt P42345). Description: mTOR/GbL/Raptor (mTORC1) ELISA assay. It counts as biochemical. The settings on record: phosphorylation of 4E-BP1; 0.2 nM mTORC1, 10 μM ATP; read-out: IC50 in this assay (mTORC1 ELISA). In short, it runs like this:
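ELISA read-out: phospho-4E-BP1 captured on Ni-chelate plates and detected with anti-phospho antibody plus HRP-anti-IgG luminescence. The kinase step ran 120 min at ambient temperature with 0.2 nM human mTORC1, 10 µM ATP, 50 nM His-4E-BP1, 10 mM MnCl2, pH 7.2 HEPES.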
Regarding `Cc1nc2ccc(-c3ccc4c(c3)CN(c3nc(CNCCF)nc5c3CC(C)(C)CC5)CCO4)cc2[nH]1` [Example 586, N-({6,6-dimethyl-4-[7-(2-methyl-1H-benzimidazol-6-yl)-2,3-dihydro-1,4-benzoxazepin-4(5H)-yl]-5,6,7,8-tetrahydroquinazolin-2-yl}methyl)-2-fluoroethanamine], the IC50 was no more than 10 nM.
Next, `Cc1nc2ccc(-c3ccc4c(c3)CN(c3nc(CNC5CCC5)nc5c3CC(C)(C)CC5)CCO4)cc2[nH]1` [Example 587, N-({6,6-dimethyl-4-[7-(2-methyl-1H-benzimidazol-6-yl)-2,3-dihydro-1,4-benzoxazepin-4(5H)-yl]-5,6,7,8-tetrahydroquinazolin-2-yl}methyl)cyclobutanamine]: 10 to 50 nM; `Cc1nc2ccc(-c3ccc4c(c3)CN(c3nc(CNC5CC5)nc5c3CC(C)(C)CC5)CCO4)cc2[nH]1` [Example 588, N-({6,6-dimethyl-4-[7-(2-methyl-1H-benzimidazol-6-yl)-2,3-dihydro-1,4-benzoxazepin-4(5H)-yl]-5,6,7,8-tetrahydroquinazolin-2-yl}methyl)cyclopropanamine]: 10 to 50 nM.
For the compound `CCNCc1nc2c(c(N3CCOc4ccc(-c5ccc6nc(C)[nH]c6c5)cc4C3)n1)CC(C)(C)CC2` [Example 589, N-({6,6-dimethyl-4-[7-(2-methyl-1H-benzimidazol-6-yl)-2,3-dihydro-1,4-benzoxazepin-4(5H)-yl]-5,6,7,8-tetrahydroquinazolin-2-yl}methyl)ethanamine], the IC50 was no more than 10 nM.
With `COCCNCc1nc2c(c(N3CCOc4ccc(-c5cnc6nc(C)[nH]c6c5)cc4C3)n1)CC(C)(C)CC2` [Example 590, N-({6,6-dimethyl-4-[7-(2-methyl-1H-imidazo[4,5-b]pyridin-6-yl)-2,3-dihydro-1,4-benzoxazepin-4(5H)-yl]-5,6,7,8-tetrahydroquinazolin-2-yl}methyl)-2-(methyloxy)ethanamine], the IC50 was no more than 10 nM.
Next, `Cc1nc2ncc(-c3ccc4c(c3)CN(c3nc(CNCC(F)(F)F)nc5c3CC(C)(C)CC5)CCO4)cc2[nH]1` [Example 591, N-({6,6-dimethyl-4-[7-(2-methyl-1H-imidazo[4,5-b]pyridin-6-yl)-2,3-dihydro-1,4-benzoxazepin-4(5H)-yl]-5,6,7,8-tetrahydroquinazolin-2-yl}methyl)-2,2,2-trifluoroethanamine]: 10 to 50 nM; `Cc1nc2ncc(-c3ccc4c(c3)CN(c3nc(CNCC(F)F)nc5c3CC(C)(C)CC5)CCO4)cc2[nH]1` [Example 592, N-({6,6-dimethyl-4-[7-(2-methyl-1H-imidazo[4,5-b]pyridin-6-yl)-2,3-dihydro-1,4-benzoxazepin-4(5H)-yl]-5,6,7,8-tetrahydroquinazolin-2-yl}methyl)-2,2-difluoroethanamine]: no more than 10 nM; `Cc1nc2ncc(-c3ccc4c(c3)CN(c3nc(CNCCF)nc5c3CC(C)(C)CC5)CCO4)cc2[nH]1` [Example 593, N-({6,6-dimethyl-4-[7-(2-methyl-1H-imidazo[4,5-b]pyridin-6-yl)-2,3-dihydro-1,4-benzoxazepin-4(5H)-yl]-5,6,7,8-tetrahydroquinazolin-2-yl}methyl)-2-fluoroethanamine]: no more than 10 nM.
For `Cc1nc2ncc(-c3ccc4c(c3)CN(c3nc(CNCC(C)C)nc5c3CC(C)(C)CC5)CCO4)cc2[nH]1` [Example 594, N-({6,6-dimethyl-4-[7-(2-methyl-1H-imidazo[4,5-b]pyridin-6-yl)-2,3-dihydro-1,4-benzoxazepin-4(5H)-yl]-5,6,7,8-tetrahydroquinazolin-2-yl}methyl)-2-methylpropan-1-amine] the value was 10 to 50 nM.
As to `Cc1nc2ncc(-c3ccc4c(c3)CN(c3nc(CNC(C)(C)C)nc5c3CC(C)(C)CC5)CCO4)cc2[nH]1` [Example 595, N-({6,6-dimethyl-4-[7-(2-methyl-1H-imidazo[4,5-b]pyridin-6-yl)-2,3-dihydro-1,4-benzoxazepin-4(5H)-yl]-5,6,7,8-tetrahydroquinazolin-2-yl}methyl)-2-methylpropan-2-amine], the IC50 lay in the range of 10 to 50 nM.
As for `Cc1nc2ncc(-c3ccc4c(c3)CN(c3nc(CN[C@@H](C)C(=O)O)nc5c3CC(C)(C)CC5)CCO4)cc2[nH]1` [Example 596, N-({6,6-dimethyl-4-[7-(2-methyl-1H-imidazo[4,5-b]pyridin-6-yl)-2,3-dihydro-1,4-benzoxazepin-4(5H)-yl]-5,6,7,8-tetrahydroquinazolin-2-yl}methyl)alanine], the IC50 is no more than 10 nM.
`Cc1nc2ncc(-c3ccc4c(c3)CN(c3nc(CNC5CCC5)nc5c3CC(C)(C)CC5)CCO4)cc2[nH]1` [Example 597, N-({6,6-dimethyl-4-[7-(2-methyl-1H-imidazo[4,5-b]pyridin-6-yl)-2,3-dihydro-1,4-benzoxazepin-4(5H)-yl]-5,6,7,8-tetrahydroquinazolin-2-yl}methyl)cyclobutanamine]: the IC50 was no more than 10 nM.
As to `Cc1nc2ncc(-c3ccc4c(c3)CN(c3nc(CNC5CCCC5)nc5c3CC(C)(C)CC5)CCO4)cc2[nH]1` [Example 598, N-({6,6-dimethyl-4-[7-(2-methyl-1H-imidazo[4,5-b]pyridin-6-yl)-2,3-dihydro-1,4-benzoxazepin-4(5H)-yl]-5,6,7,8-tetrahydroquinazolin-2-yl}methyl)cyclopentanamine], the IC50 is no more than 10 nM.
For `Cc1nc2ncc(-c3ccc4c(c3)CN(c3nc(CNC5CC5)nc5c3CC(C)(C)CC5)CCO4)cc2[nH]1` [Example 599, N-({6,6-dimethyl-4-[7-(2-methyl-1H-imidazo[4,5-b]pyridin-6-yl)-2,3-dihydro-1,4-benzoxazepin-4(5H)-yl]-5,6,7,8-tetrahydroquinazolin-2-yl}methyl)cyclopropanamine] the value was no more than 10 nM; for `CCNCc1nc2c(c(N3CCOc4ccc(-c5cnc6nc(C)[nH]c6c5)cc4C3)n1)CC(C)(C)CC2` [Example 600, N-({6,6-dimethyl-4-[7-(2-methyl-1H-imidazo[4,5-b]pyridin-6-yl)-2,3-dihydro-1,4-benzoxazepin-4(5H)-yl]-5,6,7,8-tetrahydroquinazolin-2-yl}methyl)ethanamine], no more than 10 nM; for `Cc1nc2ncc(-c3ccc4c(c3)CN(c3nc(CNS(C)(=O)=O)nc5c3CC(C)(C)CC5)CCO4)cc2[nH]1` [Example 601, N-({6,6-dimethyl-4-[7-(2-methyl-1H-imidazo[4,5-b]pyridin-6-yl)-2,3-dihydro-1,4-benzoxazepin-4(5H)-yl]-5,6,7,8-tetrahydroquinazolin-2-yl)methyl)methanesulfonamide], no more than 10 nM.
Turning to `CCN(CC)Cc1nc2c(c(N3CCOc4ccc(-c5cnc6nc(C)[nH]c6c5)cc4C3)n1)CC(C)(C)CC2` [Example 602, N-({6,6-dimethyl-4-[7-(2-methyl-1H-imidazo[4,5-b]pyridin-6-yl)-2,3-dihydro-1,4-benzoxazepin-4(5H)-yl]-5,6,7,8-tetrahydroquinazolin-2-yl}methyl)-N-ethylethanamine], the IC50 was in the range of 10 to 50 nM.
For the compound `CCN(Cc1nc2c(c(N3CCOc4ccc(-c5cnc6nc(C)[nH]c6c5)cc4C3)n1)CC(C)(C)CC2)C(C)C` [Example 603, N-({6,6-dimethyl-4-[7-(2-methyl-1H-imidazo[4,5-b]pyridin-6-yl)-2,3-dihydro-1,4-benzoxazepin-4(5H)-yl]-5,6,7,8-tetrahydroquinazolin-2-yl}methyl)-N-ethylpropan-2-amine], the IC50 was 50 to 250 nM.
Take `Cc1nc2ncc(-c3ccc4c(c3)CN(c3nc(CN(C)C5CC5)nc5c3CC(C)(C)CC5)CCO4)cc2[nH]1` [Example 604, N-({6,6-dimethyl-4-[7-(2-methyl-1H-imidazo[4,5-b]pyridin-6-yl)-2,3-dihydro-1,4-benzoxazepin-4(5H)-yl]-5,6,7,8-tetrahydroquinazolin-2-yl}methyl)-N-methylcyclopropanamaine]: the IC50 was 10 to 50 nM.
For `CCN(C)Cc1nc2c(c(N3CCOc4ccc(-c5cnc6nc(C)[nH]c6c5)cc4C3)n1)CC(C)(C)CC2` [Example 605, N-({6,6-dimethyl-4-[7-(2-methyl-1H-imidazo[4,5-b]pyridin-6-yl)-2,3-dihydro-1,4-benzoxazepin-4(5H)-yl]-5,6,7,8-tetrahydroquinazolin-2-yl}methyl)-N-methylethanamine], the IC50 was no more than 10 nM.
Next, `Cc1nc2ncc(-c3ccc4c(c3)CN(c3nc(CN(C)C(C)C)nc5c3CC(C)(C)CC5)CCO4)cc2[nH]1` [Example 606, N-({6,6-dimethyl-4-[7-(2-methyl-1H-imidazo[4,5-b]pyridin-6-yl)-2,3-dihydro-1,4-benzoxazepin-4(5H)-yl]-5,6,7,8-tetrahydroquinazolin-2-yl}methyl)-N-methylpropan-2-amine]: 10 to 50 nM; `Cc1nc2ncc(-c3ccc4c(c3)CN(c3nc(CNC(C)C)nc5c3CC(C)(C)CC5)CCO4)cc2[nH]1` [Example 607, N-({6,6-dimethyl-4-[7-(2-methyl-1H-imidazo[4,5-b]pyridin-6-yl)-2,3-dihydro-1,4-benzoxazepin-4(5H)-yl]-5,6,7,8-tetrahydroquinazolin-2-yl}methyl)propan-2-amine]: no more than 10 nM.
On to `COc1ccc2c(N3CCOc4ccc(-c5cnc(Cl)c(NS(C)(=O)=O)c5)cc4C3)ncnc2c1` [Example 608, N-(2-chloro-5-{4-[7-(methyloxy)quinazolin-4-yl]-2,3,4,5-tetrahydro-1,4-benzoxazepin-7-yl}pyridin-3-yl)methanesulfonamide], for which the IC50 fell in the range of 10 to 50 nM.
Consider `COc1ccc2c(N3CCOc4ccc(-c5ccc(NC(C)=O)cc5)cc4C3)nc(C)nc2c1` [Example 609, N-(4-{4-[2-methyl-7-(methyloxy)quinazolin-4-yl]-2,3,4,5-tetrahydro-1,4-benzoxazepin-7-yl}phenyl)acetamide], for which the IC50 was no less than 2000 nM.
For `CNc1ncnc(N2CCOc3ccc(-c4cnc5nc(C)[nH]c5c4)cc3C2)c1C` [Example 610, N,5-dimethyl-6-[7-(2-methyl-1H-imidazo[4,5-b]pyridin-6-yl)-2,3-dihydro-1,4-benzoxazepin-4(5H)-yl]pyrimidin-4-amine] the value was 250 to 1000 nM.
